# Measurements: patent US10016469B2, “Composition comprising antifungal agents for treating vulvovaginitis and vaginosis” (Two Lines Co., Ltd., priority 2015, dated 2018)
# Assays:
# L. crispatus YH2 = assay: Antibiotic disk diffusion assay; assay type: cell-based, Lactobacillus crispatus; settings: L. crispatus YH2, MRS agar
# Protocol: (§1) To screen antibiotics to which Gardnerella vaginalis (G. vaginalis) is sensitive, and are resistant to probiotics, antibiotics were tested using a disk diffusion assay. Columbia agar containing a 5% human red blood cell solution was used as a media for Gardnerella vaginalis (G. vaginalis, ATCC 14018) and a MRS agar was used as a media for the strains of the present invention ([…]1 and L. crispatus YH2). As the antibiotic disk, a product manufactured by OXIOD was used.
# S. denitrificans YH1 = assay: Antibiotic disk diffusion assay; assay type: cell-based; settings: S. denitrificans YH1, MRS agar
# Protocol: as §1
# [1] = tested on: G. vaginalis, standard microorganism (ATCC 14018); assay: Antibiotic disk diffusion assay; assay type: cell-based, Gardnerella vaginalis; settings: G. vaginalis ATCC 14018, Columbia agar with 5% human red blood cell solution
# Protocol: To screen antibiotics to which Gardnerella vaginalis (G. vaginalis) is sensitive, and are resistant to probiotics, antibiotics were tested using a disk diffusion assay.
# (§2) Columbia agar containing a 5% human red blood cell solution was used as a media for Gardnerella vaginalis (G. vaginalis, ATCC 14018) and a MRS agar was used as a media for the strains of the present invention (S. denitnficans YH1 and L. crispatus YH2). As the antibiotic disk, a product manufactured by OXIOD was used.
# (§3) As described above, augmentin, metronidazole, and clindamycin were applied to a wild-type Gardnerella vaginalis (G. vaginalis) strain obtained from 33 patients suffering from bacterial vaginosis and a standard microorganism (ATCC 14018) and subjected to a test using a disk diffusion assay.
# [2] = tested on: wild-type Gardnerella vaginalis (G. vaginalis) strain obtained from 33 patients suffering from bacterial vaginosis; assay: Antibiotic disk diffusion assay on clinical isolates; assay type: cell-based; settings: for Diameter of inhibition zone per antibiotic, Average ± SD: average over the G. vaginalis strains of Table 11
# From the text: as §2, §3
# [3] = G. vaginalis strain 14-1, biotype 1
# [4] = G. vaginalis strain 14-2, biotype 5
# [5] = G. vaginalis strain 14-3, biotype 4
# [6] = G. vaginalis strain 14-4, biotype 6
# [7] = G. vaginalis strain 14-5, biotype 4
# [8] = G. vaginalis strain 14-6, biotype 1
# [9] = G. vaginalis strain 14-7, biotype 5
# [10] = G. vaginalis strain 14-8, biotype 3
# [11] = G. vaginalis strain 14-9, biotype 2
# [12] = G. vaginalis strain 14-10, biotype 3
# [13] = G. vaginalis strain 14-11, biotype 2
# [14] = G. vaginalis strain 14-12, biotype 5
# [15] = G. vaginalis strain 14-13, biotype 5
# [16] = G. vaginalis strain 14-14, biotype 4
# [17] = G. vaginalis strain 14-15, biotype 5
# [18] = G. vaginalis strain 14-16, biotype 8
# [19] = G. vaginalis strain 14-17, biotype 5
# [20] = G. vaginalis strain 14-19, biotype 5
# [21] = G. vaginalis strain 14-20, biotype 7
# [22] = G. vaginalis strain 14-21, biotype 8
# [23] = G. vaginalis strain 14-23, biotype 8
# [24] = G. vaginalis strain 14-24, biotype 8
# [25] = G. vaginalis strain 14-25, biotype 5
# [26] = G. vaginalis strain 14-26, biotype 5
# [27] = G. vaginalis strain 14-27, biotype 4
# [28] = G. vaginalis strain 14-28, biotype 5
# [29] = G. vaginalis strain 14-29, biotype 5
# [30] = G. vaginalis strain 14-30, biotype 5
# [31] = G. vaginalis strain 14-32, biotype 5
# [32] = G. vaginalis strain 14-33, biotype 7
# [33] = G. vaginalis strain 14-34, biotype 5
# [34] = G. vaginalis strain 14-36, biotype 5
# [35] = G. vaginalis strain 14-37, biotype 1
compound,measurement,setting,value
CC1(C)S[C@@H]2[C@H](NC(=O)Cc3ccccc3)C(=O)N2[C@H]1C(=O)O [Penicillin G],diameter of inhibition zone,L. crispatus YH2,0 mm
same,diameter of inhibition zone,S. denitrificans YH1,0 mm
same,diameter of inhibition zone,[1],10 mm
Cc1ncc([N+](=O)[O-])n1CCO [Metronidazole],share of wild-type G. vaginalis strains on which no inhibitory effect was shown,"[2]; 21 of 33 wild-type strains, metronidazole 50 μg/disc",64%
same,share of Biotype 5 strains completely resistant,"[2]; Biotype 5, 14 of 15 strains",93%
same,Diameter of inhibition zone per antibiotic,[2]; [3],27 mm
same,Diameter of inhibition zone per antibiotic,[2]; [4],0 mm
same,Diameter of inhibition zone per antibiotic,[2]; [5],40 mm
same,Diameter of inhibition zone per antibiotic,[2]; [6],35 mm
same,Diameter of inhibition zone per antibiotic,[2]; [7],35 mm
same,Diameter of inhibition zone per antibiotic,[2]; [8],32 mm
same,Diameter of inhibition zone per antibiotic,[2]; [9],0 mm
same,Diameter of inhibition zone per antibiotic,[2]; [10],0 mm
same,Diameter of inhibition zone per antibiotic,[2]; [11],0 mm
same,Diameter of inhibition zone per antibiotic,[2]; [12],0 mm
same,Diameter of inhibition zone per antibiotic,[2]; [13],0 mm
same,Diameter of inhibition zone per antibiotic,[2]; [14],0 mm
same,Diameter of inhibition zone per antibiotic,[2]; [15],0 mm
same,Diameter of inhibition zone per antibiotic,[2]; [16],35 mm
same,Diameter of inhibition zone per antibiotic,[2]; [17],0 mm
same,Diameter of inhibition zone per antibiotic,[2]; [18],25 mm
same,Diameter of inhibition zone per antibiotic,[2]; [19],0 mm
same,Diameter of inhibition zone per antibiotic,[2]; [20],0 mm
same,Diameter of inhibition zone per antibiotic,[2]; [21],0 mm
same,Diameter of inhibition zone per antibiotic,[2]; [22],30 mm
same,Diameter of inhibition zone per antibiotic,[2]; [23],33 mm
same,Diameter of inhibition zone per antibiotic,[2]; [24],20 mm
same,Diameter of inhibition zone per antibiotic,[2]; [25],25 mm
same,Diameter of inhibition zone per antibiotic,[2]; [26],0 mm
same,Diameter of inhibition zone per antibiotic,[2]; [27],0 mm
same,Diameter of inhibition zone per antibiotic,[2]; [28],0 mm
same,Diameter of inhibition zone per antibiotic,[2]; [29],0 mm
same,Diameter of inhibition zone per antibiotic,[2]; [30],0 mm
same,Diameter of inhibition zone per antibiotic,[2]; [31],0 mm
same,Diameter of inhibition zone per antibiotic,[2]; [32],0 mm
same,Diameter of inhibition zone per antibiotic,[2]; [33],0 mm
same,Diameter of inhibition zone per antibiotic,[2]; [34],0 mm
same,Diameter of inhibition zone per antibiotic,[2]; [35],20 mm
same,zone of inhibition at 50 µg/disc,"[2]; Gardnerella vaginalis, 12 sensitive wild-type strains, metronidazole 50 μg/disc, read-out: inhibition zones for the remaining 12 strains",20 to 40 mm
same,diameter of inhibition zone,[1],0 mm
Gentamicin,diameter of inhibition zone,L. crispatus YH2,0 mm
same,diameter of inhibition zone,S. denitrificans YH1,0 mm
same,diameter of inhibition zone,[1],0 mm
CC1(C)S[C@@H]2[C@H](NC(=O)C(C(=O)O)c3ccccc3)C(=O)N2[C@H]1C(=O)O (stereo partly shown) [Carbenicillin],diameter of inhibition zone,L. crispatus YH2,35 mm
same,diameter of inhibition zone,S. denitrificans YH1,35 mm
same,diameter of inhibition zone,[1],40 mm
CCC[C@@H]1C[C@@H](C(=O)N[C@@H]([C@H]2O[C@H](SC)[C@H](O)[C@@H](O)[C@H]2O)[C@H](C)Cl)N(C)C1 [Clindamycin],Diameter of inhibition zone per antibiotic,[2]; [3],50 mm
same,Diameter of inhibition zone per antibiotic,[2]; [4],60 mm
same,Diameter of inhibition zone per antibiotic,[2]; [5],55 mm
same,Diameter of inhibition zone per antibiotic,[2]; [6],50 mm
same,Diameter of inhibition zone per antibiotic,[2]; [7],45 mm
same,Diameter of inhibition zone per antibiotic,[2]; [8],45 mm
same,Diameter of inhibition zone per antibiotic,[2]; [9],60 mm
same,Diameter of inhibition zone per antibiotic,[2]; [10],50 mm
same,Diameter of inhibition zone per antibiotic,[2]; [11],50 mm
same,Diameter of inhibition zone per antibiotic,[2]; [12],55 mm
same,Diameter of inhibition zone per antibiotic,[2]; [13],60 mm
same,Diameter of inhibition zone per antibiotic,[2]; [14],50 mm
same,Diameter of inhibition zone per antibiotic,[2]; [15],55 mm
same,Diameter of inhibition zone per antibiotic,[2]; [16],50 mm
same,Diameter of inhibition zone per antibiotic,[2]; [17],60 mm
same,Diameter of inhibition zone per antibiotic,[2]; [18],60 mm
same,Diameter of inhibition zone per antibiotic,[2]; [19],55 mm
same,Diameter of inhibition zone per antibiotic,[2]; [20],55 mm
same,Diameter of inhibition zone per antibiotic,[2]; [21],50 mm
same,Diameter of inhibition zone per antibiotic,[2]; [22],50 mm
same,Diameter of inhibition zone per antibiotic,[2]; [23],55 mm
same,Diameter of inhibition zone per antibiotic,[2]; [24],50 mm
same,Diameter of inhibition zone per antibiotic,[2]; [25],55 mm
same,Diameter of inhibition zone per antibiotic,[2]; [26],65 mm
same,Diameter of inhibition zone per antibiotic,[2]; [27],55 mm
same,Diameter of inhibition zone per antibiotic,[2]; [28],60 mm
same,Diameter of inhibition zone per antibiotic,[2]; [29],65 mm
same,Diameter of inhibition zone per antibiotic,[2]; [30],65 mm
same,Diameter of inhibition zone per antibiotic,[2]; [31],60 mm
same,Diameter of inhibition zone per antibiotic,[2]; [32],55 mm
same,Diameter of inhibition zone per antibiotic,[2]; [33],60 mm
same,Diameter of inhibition zone per antibiotic,[2]; [34],60 mm
same,Diameter of inhibition zone per antibiotic,[2]; [35],60 mm
same,"Diameter of inhibition zone per antibiotic, Average ± SD",[2],55.45 ± 5.5 mm
same,"Diameter of inhibition zone per antibiotic, Average ± SD",[2]; listed as clindamycin,55.45±5.5 mm
same,diameter of inhibition zone,[1],55 mm
CO/N=C(\C(=O)N[C@@H]1C(=O)N2C(C(=O)O)=C(COC(C)=O)CS[C@H]12)c1csc(N)n1 [Cefotaxime],diameter of inhibition zone,L. crispatus YH2,0 mm
same,diameter of inhibition zone,S. denitrificans YH1,0 mm
same,diameter of inhibition zone,[1],10 mm
CN[C@H](CC(C)C)C(=O)N[C@H]1C(=O)N[C@@H](CC(N)=O)C(=O)N[C@H]2C(=O)N[C@H]3C(=O)N[C@H](C(=O)N[C@H](C(=O)O)c4cc(O)cc(O)c4-c4cc3ccc4O)[C@H](O)c3ccc(c(Cl)c3)Oc3cc2cc(c3O[C@@H]2O[C@H](CO)[C@@H](O)[C@H](O)[C@H]2O[C@H]2C[C@](C)(N)[C@H](O)[C@H](C)O2)Oc2ccc(cc2Cl)[C@H]1O [Vancomycin],diameter of inhibition zone,L. crispatus YH2,35 mm
same,diameter of inhibition zone,S. denitrificans YH1,35 mm
same,diameter of inhibition zone,[1],40 mm
Trimethoprim sulfamethoxazole,diameter of inhibition zone,L. crispatus YH2,0 mm
same,diameter of inhibition zone,S. denitrificans YH1,0 mm
same,diameter of inhibition zone,[1],0 mm
CC1(C)S[C@@H]2[C@H](NC(=O)[C@H](N)c3ccccc3)C(=O)N2[C@H]1C(=O)O [Ampicillin],diameter of inhibition zone,L. crispatus YH2,0 mm
same,diameter of inhibition zone,S. denitrificans YH1,0 mm
same,diameter of inhibition zone,[1],10 mm
Cc1onc(-c2ccccc2)c1C(=O)N[C@@H]1C(=O)N2[C@@H]1SC(C)(C)[C@@H]2C(=O)O [Oxacillin],diameter of inhibition zone,L. crispatus YH2,0 mm
same,diameter of inhibition zone,S. denitrificans YH1,0 mm
same,diameter of inhibition zone,[1],0 mm
C[C@@H](O)[C@H]1C(=O)N2C(C(=O)O)=C(SCCN=CN)C[C@H]12 [Imipenem],diameter of inhibition zone,L. crispatus YH2,25 mm
same,diameter of inhibition zone,S. denitrificans YH1,30 mm
same,diameter of inhibition zone,[1],40 mm
Augmentin,Diameter of inhibition zone per antibiotic,[2]; [3],60 mm
same,Diameter of inhibition zone per antibiotic,[2]; [4],33 mm
same,Diameter of inhibition zone per antibiotic,[2]; [5],40 mm
same,Diameter of inhibition zone per antibiotic,[2]; [6],45 mm
same,Diameter of inhibition zone per antibiotic,[2]; [7],40 mm
same,Diameter of inhibition zone per antibiotic,[2]; [8],60 mm
same,Diameter of inhibition zone per antibiotic,[2]; [9],40 mm
same,Diameter of inhibition zone per antibiotic,[2]; [10],50 mm
same,Diameter of inhibition zone per antibiotic,[2]; [11],35 mm
same,Diameter of inhibition zone per antibiotic,[2]; [12],35 mm
same,Diameter of inhibition zone per antibiotic,[2]; [13],60 mm
same,Diameter of inhibition zone per antibiotic,[2]; [14],35 mm
same,Diameter of inhibition zone per antibiotic,[2]; [15],30 mm
same,Diameter of inhibition zone per antibiotic,[2]; [16],40 mm
same,Diameter of inhibition zone per antibiotic,[2]; [17],45 mm
same,Diameter of inhibition zone per antibiotic,[2]; [18],45 mm
same,Diameter of inhibition zone per antibiotic,[2]; [19],35 mm
same,Diameter of inhibition zone per antibiotic,[2]; [20],40 mm
same,Diameter of inhibition zone per antibiotic,[2]; [21],60 mm
same,Diameter of inhibition zone per antibiotic,[2]; [22],50 mm
same,Diameter of inhibition zone per antibiotic,[2]; [23],35 mm
same,Diameter of inhibition zone per antibiotic,[2]; [24],50 mm
same,Diameter of inhibition zone per antibiotic,[2]; [25],60 mm
same,Diameter of inhibition zone per antibiotic,[2]; [26],50 mm
same,Diameter of inhibition zone per antibiotic,[2]; [27],50 mm
same,Diameter of inhibition zone per antibiotic,[2]; [28],30 mm
same,Diameter of inhibition zone per antibiotic,[2]; [29],40 mm
same,Diameter of inhibition zone per antibiotic,[2]; [30],55 mm
same,Diameter of inhibition zone per antibiotic,[2]; [31],50 mm
same,Diameter of inhibition zone per antibiotic,[2]; [32],45 mm
same,Diameter of inhibition zone per antibiotic,[2]; [33],40 mm
same,Diameter of inhibition zone per antibiotic,[2]; [34],40 mm
same,Diameter of inhibition zone per antibiotic,[2]; [35],60 mm
same,"Diameter of inhibition zone per antibiotic, Average ± SD",[2],44.9±9.5 mm
same,"resistance of the G. vaginalis strains, in words",[2]; strains of Table 11,no strain was resistant
same,diameter of inhibition zone,[1],60 mm
